Measurements taken from ChEMBL document CHEMBL1126109 (J Med Chem, 1992).

What was measured:
Assay type in all cases: protein-complex assay
Glutamate NMDA receptor [1] = test: Compound was evaluated for the inhibition of [3H]norepinephrine binding at N-methyl-D-aspartate glutamate receptor
Glutamate NMDA receptor [2] = test: Compound was evaluated for the inhibition of [3H]-CGS-19,755 binding at N-methyl-D-aspartate glutamate receptor
Glutamate NMDA receptor [3] = test: Compound was evaluated for the inhibition of [3H]MK-801 binding at N-methyl-D-aspartate glutamate receptor

Compound	EC50 (Glutamate NMDA receptor [1])	IC50 (Glutamate NMDA receptor [2])	EC50 (Glutamate NMDA receptor [3])
N[C@]1(C(=O)O)C[C@@H](C(=O)O)C1	16500 nM	163 nM	180 nM
NC(C(=O)O)c1nnn[nH]1 (racemic)	2030 nM	98 nM	70 nM
N[C@@H](CC(=O)O)C(=O)O [ASPARTIC ACID]	–	1640 nM	–
CN[C@H](CC(=O)O)C(=O)O [N-METHYL-D-ASPARTIC ACID (NMDA)]	75000 nM	4150 nM	6860 nM
